{
  "source": "patent US20260216242A1",
  "about": "“ALPP-SPECIFIC VARIANT ANTIGEN BINDING MOLECULES” (ALMAC DISCOVERY LIMITED, priority 2022, published 2026)",
  "key": {"CHO-ALPP cells": {"system": "CHO-ALPP cells", "test": "In vitro cell viability (Cell Titre Glo, 96 h), CHO-ALPP", "type": "cell-based", "settings": "cell-killing", "experimental": "(§1) CHO-ALPP isoform stable transfectants were generated using CHO-K1 cells (CCL-61) provided by the American Type Culture Collection (ATCC). Grown in ATCC-formulated F-12K medium+10% FCS.\n(§2) In vitro cell viability assays for cancer cells treated with anti ALPP/ALPPL2 drug conjugates Cells were seeded in the appropriate complete growth media, as described above, into white, clear bottom 96 well plates (Costar) and incubated at 37° C., 5% C02 for 24 hours. On the following day, dilution series were set up for each test agent at ×10 working stocks. The dose response X10 stock was e.g.: 10000, 5000, 1000, 500, 100, 50, 10, 5, 1, 0.5 nM etc. […] Plates were allowed to sit for a further 10 minutes at room temperature prior to measuring luminescence read-out using a Clariostar plate-reader (BMG). Data was analysed by calculating the average for untreated (vehicle only) control wells and determining the % of control for each treated well. % of control data was then plotted against Log [Treatment] concentration and the IC50 value derived using non-linear regression fitting in GraphPad Prism software. […]\n(§3) Cell Titre Glo assays were performed as described in Example 5. Cells were incubated with VHH-hFc-drug conjugates and h12F3 drug conjugates at 37° C., 5% CO2 for 96 hours and the % of cell viability determined as a function of dose response. […]"}, "CHO-ALPPL2 cells": {"system": "CHO-ALPPL2 cells", "test": "In vitro cell viability (Cell Titre Glo, 96 h), CHO-ALPPL2", "type": "cell-based", "settings": "cell-killing", "experimental": "as §1, §2, §3"}, "CHO-ALPI cells": {"system": "CHO-ALPI cells", "test": "In vitro cell viability (Cell Titre Glo, 96 h), CHO-ALPI", "type": "cell-based", "settings": "cell-killing", "experimental": "as §1\nas §2, with “etc. 10 μL of the X10 stock solutions were added to the cell plates (90 μl per well) using a multichannel pipette. […] 10 μl of vehicle control (PBS) was added to the control wells (columns 11 and 12). Plates were incubated at 37° C., 5% CO2 for 96 hours.” for “etc.”"}, "CHO-ALPL cells": {"system": "CHO-ALPL cells", "test": "In vitro cell viability (Cell Titre Glo, 96 h), CHO-ALPL", "type": "cell-based", "settings": "cell-killing", "experimental": "as §1\nas §2, with “etc. 10 μL of the X10 stock solutions were added to the cell plates (90 μl per well) using a multichannel pipette. […] 10 μl of vehicle control (PBS) was added to the control wells (columns 11 and 12). Plates were incubated at 37° C., 5% CO2 for 96 hours.” for “etc.”"}, "MKN1 cells": {"system": "MKN1 cells", "test": "In vitro cell viability (Cell Titre Glo, 96 h), MKN1", "type": "cell-based", "settings": "Table 24", "experimental": "MKN1 cells (RCB1003, Riken BRC). Ref: Cancer Sci 2006; 97:387-394, were provided by the RIKEN BRC through the National BioResource Project of the MEXT, Japan Grown in RPMI1640+10% FCS.\nas §2\n(§4) Cell Titre Glo assays were performed as described in Example 5. Cells were incubated with biparatopic VHH-hFc-drug conjugates and h12F3 drug conjugate at 37° C., 5% CO2 for 96 hours and the % of cell viability determined as a function of dose response. […]"}, "NCI-H1651 cells": {"system": "NCI-H1651 cells", "test": "In vitro cell viability (Cell Titre Glo, 96 h), NCI-H1651", "type": "cell-based", "settings": "Table 24", "experimental": "NCI-H1651 cells, CRL-5884 provided by the American Type Culture Collection (ATCC). Grown in ATCC DMEM:F12 medium+10% FCS plus supplements required to make ACL-4 media as recommended by ATCC.\nas §2, §3"}, "NCI-N87 cells": {"system": "NCI-N87 cells", "test": "In vitro cell viability (Cell Titre Glo, 96 h), NCI-N87", "type": "cell-based, human", "settings": "Table 24", "experimental": "NCI-N87 cells, CRL-5822 provided by the American Type Culture Collection (ATCC). Grown in RPM11640+10% FCS.\nas §2, with “etc. 10 μL of the X10 stock solutions were added to the cell plates (90 μl per well) using a multichannel pipette.” for “etc.”\nas §4"}, "HeLa cells": {"system": "HeLa cells", "test": "In vitro cell viability (Cell Titre Glo, 96 h), HeLa", "type": "cell-based", "settings": "ALPP/ALPPL2 negative cell-line, Table 24", "experimental": "HeLa cells, CCL-2 provided by the American Type Culture Collection (ATCC). Grown in EMEM+10% FCS\nas §2, with “etc. 10 μL of the X10 stock solutions were added to the cell plates (90 μl per well) using a multichannel pipette. […] 10 μl of vehicle control (PBS) was added to the control wells (columns 11 and 12). Plates were incubated at 37° C., 5% CO2 for 96 hours. Promega Cell Titre Glo reagent was used as per the manufacturer's instructions to assess cell viability.” for “etc.”"}},
  "note": "“And” between values parts separate entries of the source, which are not always exact repeats. Equal entries are not always repeated. Where two headings read alike, the source gives them in different places. Where a SMILES comes first, the peptide text is derived from it. [ ]: non-standard residue; d: D form. The star is where a group is joined. Dolaproine = CO[C@@H]([C@@H]1CCCN1)[C@@H](C)C(=O)O; Dil = CC[C@H](C)[C@H](NC)[C@@H](CC(=O)O)OC; X1 = C[C@@H](N*)[C@@H](O)c1ccccc1; NMeV = CN[C@H](C(=O)O)C(C)C",
  "data": [
    {"smiles": "CC[C@H](C)[C@@H]([C@@H](CC(=O)N1CCC[C@H]1[C@H](OC)[C@@H](C)C(=O)N[C@H](C)[C@@H](O)c1ccccc1)OC)N(C)C(=O)[C@@H](NC(=O)[C@@H](NC)C(C)C)C(C)C", "note": "[MMAE, monomethylauristatin E] (H-[NMeV]V[Dil][Dolaproine]-X1)", "values": [
      {"measurement": "IC50", "setting": "CHO-ALPP cells; Table 18, read-out: IC50 @ 96 h, CHO-ALPP", "value": "19.1 nM and 19.5 nM"},
      {"measurement": "IC50", "setting": "CHO-ALPP cells; Table 23, read-out: IC50 at 96 h, CHO-ALPP", "value": "19.1 nM and 19.5 nM"},
      {"measurement": "IC50", "setting": "CHO-ALPPL2 cells; Table 18, read-out: IC50 @ 96 h, CHO-ALPPL2", "value": "24.4 nM and 16.6 nM"},
      {"measurement": "IC50", "setting": "CHO-ALPPL2 cells; Table 23, read-out: IC50 at 96 h, CHO-ALPPL2", "value": "24.4 nM and 15.6 nM"},
      {"measurement": "IC50", "setting": "CHO-ALPI cells; Table 18, read-out: IC50 @ 96 h, CHO-ALPI", "value": "11.4 nM and 15.9 nM"},
      {"measurement": "IC50", "setting": "CHO-ALPI cells; Table 23, read-out: IC50 at 96 h, CHO-ALPI", "value": "11.4 nM and 15.9 nM"},
      {"measurement": "IC50", "setting": "CHO-ALPL cells; Table 18, read-out: IC50 @ 96 h, CHO-ALPL", "value": "29.4 nM and 25.8 nM"},
      {"measurement": "IC50", "setting": "CHO-ALPL cells; Table 23, read-out: IC50 at 96 h, CHO-ALPL", "value": "29.4 nM and 25.8 nM"},
      {"measurement": "% viability remaining, MKN1", "setting": "MKN1 cells", "value": 23.1, "unit": "%"},
      {"measurement": "IC50", "setting": "MKN1 cells; cell-killing", "value": 1.4, "unit": "nM"},
      {"measurement": "% viability remaining, NCI-H1651", "setting": "NCI-H1651 cells", "value": 28.1, "unit": "%"},
      {"measurement": "IC50", "setting": "NCI-H1651 cells; cell-killing", "value": 0.8, "unit": "nM"},
      {"measurement": "% viability remaining, NCI-N87", "setting": "NCI-N87 cells", "value": 27.9, "unit": "%"},
      {"measurement": "IC50", "setting": "NCI-N87 cells; cell-killing", "value": 0.3, "unit": "nM"},
      {"measurement": "% viability remaining, HeLa", "setting": "HeLa cells", "value": 5.1, "unit": "%"},
      {"measurement": "IC50", "setting": "HeLa cells; cell-killing", "value": 1.8, "unit": "nM"}
    ]}
  ]
}
